From PMC8317962, “Development of tacrine clusters as positively cooperative systems for the inhibition of acetylcholinesterase” (Journal of Enzyme Inhibition and Medicinal Chemistry, 2021)
Read-outs that look alike come from different tables or passages of the source.

Experiments:
[1] = molecular target: T1, acetylcholinesterase from Electrophorus electricus (Electrophorus electricus, UniProt O42275); test: Kinetic study of AChE inhibition mode (Cornish-Bowden plots, inhibition constants); assay type: biochemical; conditions: for Ki: mean ± SD
T1 construct: purchased Sigma Aldrich type V-S
Procedure: (§1) For the assessment of enzymatic inhibition, commercially available acetylcholinesterase from Electrophorus electricus (type V-S, Sigma Aldrich) was used, conducting minor modifications on Ellman’s protocol. […] Enzymatic activities were measured in a UV–Vis instrument (Hitachi U-2900) using PS cuvettes containing […] phosphate buffer (pH 8.0), 5,5′-dithiobis(2-nitrobenzoic acid) (DTNB, 0.88 mM, buffer solution), acetylthiocholine iodide as a model substrate, inhibitor, properly diluted aqueous enzyme solution, and water up to 1.2 ml. Solutions of the enzymes were prepared so as to keep the reaction rate within 0.12–0.15 Abs/min when [S] = 4 × KM. The formation of the chromophore was monitored during 125 s at 405 nm and 25 °C.
For the calculation of the kinetic parameters of the free enzyme, and in the presence of 3a, five different substrate concentrations, ranging from ¼ KM to 4 × KM were used. Cornish-Bowden method[26] provided the mode of inhibition of 3a; for that purpose, two different plots were used: 1/v vs. [I] (Dixon plot) and [S]/v vs. [I]. […] Kinetic parameters (KM, Vmax, KM app, Vmax app) were obtained through non-linear regression analysis (least squares fit) using the GraphPad Prism 8.01 software and inhibition constants were calculated using the following equations: (1) KM,app=KM1+[I]/Kia/1+[I]/Kib (2) Vmaxapp=Vmax/1+[I]/Kib
(§2) Data are expressed as the mean ± SD.

[2] = molecular target: T1, acetylcholinesterase from Electrophorus electricus; test: biochemical; assay type: biochemical; conditions: for IC50: read-out: AChE IC50; for AChE rp (relative inhibition potency): rp = IC50 (mono-tacrine)/IC50 (tetra-tacrine); for AChE rp/n (inhibition potency on valency-corrected basis): rp/n = rp/number of tacrine rings; for less active when connected to the central multivalent sugar scaffold: from rp/n of the corresponding tetra-tacrine
Procedure: as §1, with “KM.” for “KM. The formation of the chromophore was monitored during 125 s at 405 nm and 25 °C.”
Calculation of IC50 values was accomplished by plotting %I vs. log[I] and adjusting to a second-order equation.
as §2

[3] = tested on: AChE; conditions: cited from earlier work
[4] = [S] = 121 μM, Electrophorus electricus AChE, mean ± SD

T1 sequence (O42275 24-633): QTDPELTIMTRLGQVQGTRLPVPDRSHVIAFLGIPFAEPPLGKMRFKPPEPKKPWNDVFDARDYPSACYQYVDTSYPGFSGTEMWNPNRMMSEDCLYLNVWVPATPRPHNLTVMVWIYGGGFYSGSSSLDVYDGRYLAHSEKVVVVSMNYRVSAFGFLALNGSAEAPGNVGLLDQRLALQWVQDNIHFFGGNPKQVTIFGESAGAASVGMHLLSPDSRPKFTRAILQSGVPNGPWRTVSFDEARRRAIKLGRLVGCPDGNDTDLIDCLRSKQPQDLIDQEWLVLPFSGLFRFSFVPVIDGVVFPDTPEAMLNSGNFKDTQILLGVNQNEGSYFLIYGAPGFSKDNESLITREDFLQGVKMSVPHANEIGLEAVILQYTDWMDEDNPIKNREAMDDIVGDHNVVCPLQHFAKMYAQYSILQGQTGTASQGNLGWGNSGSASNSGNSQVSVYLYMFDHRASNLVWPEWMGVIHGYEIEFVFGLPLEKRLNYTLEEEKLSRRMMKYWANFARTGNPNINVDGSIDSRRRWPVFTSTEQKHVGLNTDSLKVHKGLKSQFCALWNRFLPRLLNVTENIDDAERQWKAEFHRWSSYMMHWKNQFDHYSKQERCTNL

SMILES: CO[C@H]1O[C@H](COCc2cn(CCNc3c4c(nc5ccccc35)CCCC4)nn2)[C@@H](OCc2cn(CCNc3c4c(nc5ccccc35)CCCC4)nn2)[C@H](OCc2cn(CCNc3c4c(nc5ccccc35)CCCC4)nn2)[C@H]1OCc1cn(CCNc2c3c(nc4ccccc24)CCCC3)nn1 [Compound 3a]
- mode of inhibition of AChE ([1]; Cornish-Bowden method): Mixed inhibition
- Ki ([1]; binding to enzyme-substrate complex, read-out: Kib (non-competitive inhibition constant)): 45 ± 5.9 nM
- Ki ([1]; binding to free enzyme, read-out: Kia (competitive inhibition constant)): 31.6 ± 2 nM
- IC50 [2]: 43.7 ± 7.3 nM
- AChE rp (relative inhibition potency) [2]: 12.9
- AChE rp/n (inhibition potency on valency-corrected basis) [2]: 3.2

SMILES: OCc1cn(CCNc2c3c(nc4ccccc24)CCCC3)nn1 [Compound 3b, (1-(2-((1,2,3,4-tetrahydroacridin-9-yl)amino)ethyl)-1H-1,2,3-triazol-4-yl)metanol]
- IC50 [2]: 565 ± 79 nM

SMILES: CO[C@H]1O[C@H](COCc2cn(CCCNc3c4c(nc5ccccc35)CCCC4)nn2)[C@@H](OCc2cn(CCCNc3c4c(nc5ccccc35)CCCC4)nn2)[C@H](OCc2cn(CCCNc3c4c(nc5ccccc35)CCCC4)nn2)[C@H]1OCc1cn(CCCNc2c3c(nc4ccccc24)CCCC3)nn1 [Compound 4a]
- IC50 [2, 4]: 60.2 ± 5.5 nM
- AChE rp (relative inhibition potency) [2]: 5.8
- AChE rp/n (inhibition potency on valency-corrected basis) [2]: 1.5

SMILES: OCc1cn(CCCNc2c3c(nc4ccccc24)CCCC3)nn1 [Compound 4b, (1-(3-((1,2,3,4-tetrahydroacridin-9-yl)amino)propyl)-1H-1,2,3-triazol-4-yl)metanol]
- IC50 [2]: 348 ± 23 nM

SMILES: CO[C@H]1O[C@H](COCc2cn(CCCCCCNc3c4c(nc5ccccc35)CCCC4)nn2)[C@@H](OCc2cn(CCCCCCNc3c4c(nc5ccccc35)CCCC4)nn2)[C@H](OCc2cn(CCCCCCNc3c4c(nc5ccccc35)CCCC4)nn2)[C@H]1OCc1cn(CCCCCCNc2c3c(nc4ccccc24)CCCC3)nn1 [Compound 5a]
- IC50 [2]: 12.5 ± 3.3 nM
- AChE rp (relative inhibition potency) [2]: 1.0

SMILES: OCc1cn(CCCCCCNc2c3c(nc4ccccc24)CCCC3)nn1 [Compound 5b, (1-(6-((1,2,3,4-tetrahydroacridin-9-yl)amino)hexyl)-1H-1,2,3-triazol-4-yl)metanol]
- less active when connected to the central multivalent sugar scaffold [2]: 75%
- IC50 [2]: 12.6 ± 2.4 nM

SMILES: CO[C@H]1O[C@H](COCc2cn(CCCCCCCCNc3c4c(nc5ccccc35)CCCC4)nn2)[C@@H](OCc2cn(CCCCCCCCNc3c4c(nc5ccccc35)CCCC4)nn2)[C@H](OCc2cn(CCCCCCCCNc3c4c(nc5ccccc35)CCCC4)nn2)[C@H]1OCc1cn(CCCCCCCCNc2c3c(nc4ccccc24)CCCC3)nn1 [Compound 6a]
- IC50 [2, 4]: 232 ± 21 nM
- AChE rp (relative inhibition potency) [2]: 0.03

SMILES: OCc1cn(CCCCCCCCNc2c3c(nc4ccccc24)CCCC3)nn1 [Compound 6b, (1-(8-((1,2,3,4-Tetrahydroacridin-9-yl)amino)octyl)-1H-1,2,3-triazol-4-yl)metanol]
- less active when connected to the central multivalent sugar scaffold [2]: more than 99%
- IC50 [2]: 7.1 ± 1 nM

SMILES: CO[C@H]1O[C@H](CO)[C@@H](O)[C@H](O)[C@H]1O [Methyl α-D-glucopyranoside, methyl α-D-glucopyranoside, reference compound]
- AChE inhibition (N.I.) ([2]; Tested at 100 μM inhibitor concentration, [S] = 121 μM): N.I.^d

SMILES: c1ccc2c(NCCCCCCCNc3c4c(nc5ccccc35)CCCC4)c3c(nc2c1)CCCC3 [bis(7)tacrine]
- fold stronger AChE inhibitor than tacrine [3]: ~1000 fold
